The results in this text go back to patent US20080153701A1, “Fungicidal Mixtures” (BASF Aktiengesellschaft, priority 2004, published 2008).

One assay concerns Phytophthora infestans. Format: cell-based. As to conditions: microtiter plate, 405 nm, day 7.
In assay [1] the test system is Botrytis cinerea. Put plainly: Activity against the gray mold pathogen Botrytis cinerea in the microtiter test. It is filed as cell-based. As to conditions: microtiter plate, day 7.
The next assay deals with Puccinia recondite. Put plainly: Curative activity against brown rust of wheat (greenhouse). Format: in vivo. As to conditions: wheat seedlings, sprayed 1 day after inoculation, rated after 7 days. Here is the method:
(§1) The active compounds were separately or jointly prepared as a stock solution comprising 25 mg of active compound which was made up to 10 ml using a mixture of acetone and/or DMSO and the emulsifier Uniperol® EL (wetting agent having emulsifying and dispersing action based on ethoxylated alkylphenols) in a volume ratio of solvent/emulsifier of 99 to 1. The mixture was then made up with water to 100 ml. This stock solution was diluted with the solvent/emulsifier/water mixture described to the concentration of active compounds stated below.
(§2) The visually determined percentages of infected leaf areas were converted into efficacies in % of the untreated control:
(§3) The efficacy (E) is calculated as follows using Abbot's formula: […]
(§4) α corresponds to the fungal infection of the treated plants in % and β corresponds to the fungal infection of the untreated (control) plants in %
(§5) An efficacy of 0 means that the infection level of the treated plants corresponds to that of the untreated control plants; an efficacy of 100 means that the treated plants were not infected.
(§6) The expected efficacies of combinations of active compounds were determined using Colby's formula (Colby, S. R. “Calculating synergistic and antagonistic responses of herbicide combinations”, Weeds, 15, 20-22, 1967) and compared with the observed efficacies.
(§7) E=x+y−x·y/100 • E expected efficacy, expressed in % of the untreated control, when using the mixture of the active compounds A and B at the concentrations a and b • x efficacy, expressed in % of the untreated control, when using the active compound A at the concentration a • y efficacy, expressed in % of the untreated control, when using the active compound B at the concentration b
Leaves of wheat seedlings of the cultivar “Kanzler” cultivated in pots were inoculated with a spore suspension of brown rust (Puccinia recondite). The pots were then placed in a chamber with high atmospheric humidity (90 to 95%) and at 20 to 22° C. for 24 hours. During this time, the spores germinated and the germ tubes penetrated into leaf tissue. The next day, the infected plants were sprayed to runoff point with the solution of active compound described above having the active compound concentration stated below. After the spray coating had dried on, the test plants were cultivated in a greenhouse at temperatures between 20 and 22° C. and at 65 to 70% relative atmospheric humidity for 7 days. The extent of the rust fungus development on the leaves was then determined.

The test system of assay [2] is Botrytis cinerea. The assay can be described thus: Activity against Botrytis cinerea on bell peppers (greenhouse, protective spray). It is filed as in vivo. The following applies: bell pepper seedlings, sprayed 1 day before inoculation, rated after 5 days. The protocol: as §1, §2, §3, §4, §5, §6, §7
Bell pepper seedlings of the cultivar “Neusiedler Ideal Elite” were, after 2-3 leaves were well developed, sprayed to runoff point with an aqueous suspension in the active compound concentration stated below. […] After 5 days, the extent of the fungal infection on the leaves could be determined visually in %.

Where two headings read alike, the source gives them in different places.

Take `Fc1ccc([C@]2(Cn3cncn3)O[C@H]2c2ccccc2Cl)cc1` (racemic) [epoxiconazole, (2RS, 3SR)-1-[3-(2-chlorophenyl)-2,3-epoxy-2-(4-fluorophenyl)propyl]-1H-1,2,4-triazole]: the Observed activity in the assay on Phytophthora infestans (32 ppm) is listed as 9%; with Phytophthora infestans (125 ppm) it was 31%; in the assay on Botrytis cinerea [1] (1 ppm, 405 nm), 2%.
Consider `COCC(=O)N(c1c(C)cccc1C)C(C)C(=O)OC` (racemic) [metalaxyl, methyl N-(methoxyacetyl)-N-(2,6-xylyl)-DL-alaninate], for which, in the assay with Puccinia recondite (16 ppm), the Observed activity stood at 0%.
Take `COC(=O)NCc1cc(/C(C)=N/OCc2cccc(C)c2)ccc1Cl` [I-B]: the Observed activity in the assay with Phytophthora infestans (0.25 ppm) worked out at 4%; with Phytophthora infestans (4 ppm), 5%; in the assay on Phytophthora infestans (8 ppm), 27%; in the assay with Phytophthora infestans (32 ppm), 35%; in the assay on Phytophthora infestans (125 ppm) it was 57%; with Botrytis cinerea [2] (16 ppm) it was 10%. For the same compound, the Observed activity in the assay with Botrytis cinerea [2] (63 ppm) came out at 20%; in the assay on Botrytis cinerea [1] (0.25 ppm, 405 nm), 2%; in the assay on Botrytis cinerea [1] (1 ppm, 405 nm) it was 40%; in the assay on Botrytis cinerea [1] (4 ppm, 405 nm) it was 67%; with Puccinia recondite (16 ppm) it was 6%.
As for `O=C(Nc1ccccc1-c1ccc(Cl)cc1)c1cccnc1Cl` [boscalid, 2-chloro-N-(4′-chlorbiphenyl-2-yl)nicotinamide], in the assay on Puccinia recondite (16 ppm), the Observed activity is listed as 0%.
As to `Cc1ccc(-c2c(Cl)nc(C#N)n2S(=O)(=O)N(C)C)cc1` [cyazofamid, 4-chloro-2-cyano-N,N-dimethyl-5-(4-methylphenyl)-1H-imidazole-1-sulfonamide], the Observed activity in the assay on Botrytis cinerea [1] (1 ppm, 405 nm) stood at 0%; in the assay with Botrytis cinerea [1] (concentration not printed (second line for cyazofamid)) it was 0%.
In the case of `COc1ccc(C(=CC(=O)N2CCOCC2)c2ccc(Cl)cc2)cc1OC` [dimethomorph, 3-(4-chlorophenyl)-3-(3,4-dimethoxyphenyl)-1-morpholin-4-ylpropenone], the Observed activity with Puccinia recondite (2 ppm) and with Puccinia recondite (8 ppm) was 0% each time.
Regarding `N#Cc1sc2c(=O)c3ccccc3c(=O)c=2sc1C#N` [dithianon, 5,10-dioxo-5,10-dihydronaphtho[2,3-b][1,4]dithiin-2,3-dicarbonitrile], the Observed activity in the assay with Botrytis cinerea [2] (63 ppm) is reported as 10%.
`O=[N+]([O-])c1cc(C(F)(F)F)c(Cl)c([N+](=O)[O-])c1Nc1ncc(C(F)(F)F)cc1Cl` [fluazinam, 3-chloro-N-[3-chloro-2,6-dinitro-4-(trifluoromethyl)phenyl]-5-(trifluoromethyl)-2-pyridinamine]: the Observed activity in the assay on Phytophthora infestans (1 ppm) stood at 0%.
As to `CO/N=C(/C(=O)OC)c1ccccc1COc1ccccc1C` [kresoxim-methyl, methyl(E)-methoxyimino[α-(o-tolyloxy)-o-tolyl]acetate], the Observed activity in the assay with Phytophthora infestans (1 ppm) was 36%; in the assay on Puccinia recondite (4 ppm), 0%; with Puccinia recondite (63 ppm) it was 18%.
Take `OC(Cc1ccccc1Cl)(Cn1nc[nH]c1=S)C1(Cl)CC1` (centres unmarked) [prothioconazole, 2-[2-(1-chlorocyclopropyl)-3-(2-chlorophenyl)-2-hydroxypropyl]-2,4-dihydro[1,2,4]triazol-3-thione]: the Observed activity in the assay with Phytophthora infestans (8 ppm) was 0%; in the assay on Phytophthora infestans (32 ppm) it was 46%.
As for `COC(=O)N(OC)c1ccccc1COc1ccn(-c2ccc(Cl)cc2)n1` [pyraclostrobin, methyl N-{2-[1-(4-chlorophenyl)-1H-pyrazol-3-yloxymethyl]phenyl}(N-methoxy)carbamate], the Observed activity in the assay on Botrytis cinerea [1] (0.25 ppm, 405 nm) turned out to be 20%.
The compound “manganese-ethylenebis(dithiocarbamate) zinc complex [mancozeb]” displayed an Observed activity in the assay with Botrytis cinerea [1] (4 ppm, 405 nm) of 9%.
